Literature values in patent US20260217749A1, “METAL COMPLEX COMPOUNDS AS PHOTOSENSITIZERS FOR PHOTODYNAMIC THERAPY” (UNIVERSITAT DE BARCELONA, priority 2023, published 2026).

System: SK-MEL-28 melanoma cells
Settings: red light irradiation (625 nm)

- IC50: 2.3 µM
Structure (SMILES): Cc1ccnc(-c2cc(C)ccn2)c1.Cc1ccnc(-c2cc(C)ccn2)c1.[Cl-].[Cl-].[Ru+2].c1csc(-c2ccc(-c3ccc(-c4nc5c6cccnc6c6ncccc6c5[nH]4)s3)s2)c1 [TLD-1433]
- PI value: moderate
